Results: patent US20080090805A1, “CB-1 MODULATING COMPOUNDS AND THEIR USE” (ACADIA PHARMACEUTICALS INC., priority 2005, published 2008)

Legend:
in vitro [1] = conditions: human, microsomes, pH 7.4
in vitro [2] = conditions: rat, microsomes, pH 7.4
CB1 (wild-type) = CB1 (wild-type) (Homo sapiens, UniProt P21554); experiment: R-SAT functional receptor assay, CB1 (wild-type); assay type: cell-based; conditions: for IC50: Table 1, inhibition of constitutive receptor response; for Emax: Table 1, relative to the ligand SR141716 (100%), read-out: % Inhibition
Chain of CB1 (wild-type) (P21554 whole entry, the tested form may be a part): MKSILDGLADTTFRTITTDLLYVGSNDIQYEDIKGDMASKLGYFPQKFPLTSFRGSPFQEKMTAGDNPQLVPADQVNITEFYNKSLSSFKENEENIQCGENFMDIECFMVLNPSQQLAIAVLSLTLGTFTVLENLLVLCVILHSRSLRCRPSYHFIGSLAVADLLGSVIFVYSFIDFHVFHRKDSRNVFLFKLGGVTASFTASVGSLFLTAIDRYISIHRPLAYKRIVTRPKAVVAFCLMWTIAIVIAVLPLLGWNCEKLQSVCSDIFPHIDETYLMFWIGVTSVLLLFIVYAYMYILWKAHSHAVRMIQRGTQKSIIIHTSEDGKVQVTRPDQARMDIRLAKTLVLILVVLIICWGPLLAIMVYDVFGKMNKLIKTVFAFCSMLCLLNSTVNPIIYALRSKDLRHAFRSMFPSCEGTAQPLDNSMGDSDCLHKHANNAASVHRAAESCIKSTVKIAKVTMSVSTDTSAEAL

CB1 (mutant) = CB1 (mutant) (Homo sapiens, UniProt P21554); experiment: R-SAT functional receptor assay, CB1 (mutant, truncated after amino acid 417); assay type: cell-based; conditions: Table 1, CB1 (mutant); for IC50: inhibition of constitutive receptor response, read-out: pIC50 (converted); for % Inhibition: relative to the ligand SR141716 (100%)
Chain of CB1 (mutant) (P21554 1-417, change not shown): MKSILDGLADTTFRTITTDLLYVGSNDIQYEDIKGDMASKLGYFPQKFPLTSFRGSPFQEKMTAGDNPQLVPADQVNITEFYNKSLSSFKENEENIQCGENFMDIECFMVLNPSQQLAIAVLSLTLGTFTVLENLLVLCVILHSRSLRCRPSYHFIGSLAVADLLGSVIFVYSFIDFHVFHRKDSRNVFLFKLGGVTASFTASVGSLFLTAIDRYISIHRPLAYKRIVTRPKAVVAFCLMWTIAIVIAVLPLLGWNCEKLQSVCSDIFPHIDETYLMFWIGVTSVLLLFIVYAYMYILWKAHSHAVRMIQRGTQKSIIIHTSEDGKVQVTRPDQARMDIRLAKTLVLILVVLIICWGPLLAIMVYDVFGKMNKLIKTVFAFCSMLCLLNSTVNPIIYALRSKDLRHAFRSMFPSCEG

[3] = system: fasted Sprague-Dawley rats; experiment: Acute feeding study; assay type: in vivo; conditions: Table 3 feeding data
Procedure: Male, Sprague-Dawley rats (90-120 g) served as subjects for these studies. Rats were fasted for a period of 16 hrs (water was always available). After the fasting period, test compounds were administered either intraperitoneally (ip) or orally (po). Immediately following compound administration, the rats were returned to their home cage. Following 30 min after compound administration, the rats were removed from their home cages and placed individually into clean cages with a pre-measured amount of food. Food weights were obtained (to the nearest 0.1 g) at various time points. Food consumption was monitored for a period of up to 2 hrs (i.e., 2.5 hr after test compound administration).

in vitro [4] = conditions: mouse, microsomes, pH 7.4
hERG [5] = molecular target: T1, hERG (Homo sapiens, UniProt Q12809); experiment: in vitro; conditions: pH 7.4
T1 sequence (Q12809 whole entry): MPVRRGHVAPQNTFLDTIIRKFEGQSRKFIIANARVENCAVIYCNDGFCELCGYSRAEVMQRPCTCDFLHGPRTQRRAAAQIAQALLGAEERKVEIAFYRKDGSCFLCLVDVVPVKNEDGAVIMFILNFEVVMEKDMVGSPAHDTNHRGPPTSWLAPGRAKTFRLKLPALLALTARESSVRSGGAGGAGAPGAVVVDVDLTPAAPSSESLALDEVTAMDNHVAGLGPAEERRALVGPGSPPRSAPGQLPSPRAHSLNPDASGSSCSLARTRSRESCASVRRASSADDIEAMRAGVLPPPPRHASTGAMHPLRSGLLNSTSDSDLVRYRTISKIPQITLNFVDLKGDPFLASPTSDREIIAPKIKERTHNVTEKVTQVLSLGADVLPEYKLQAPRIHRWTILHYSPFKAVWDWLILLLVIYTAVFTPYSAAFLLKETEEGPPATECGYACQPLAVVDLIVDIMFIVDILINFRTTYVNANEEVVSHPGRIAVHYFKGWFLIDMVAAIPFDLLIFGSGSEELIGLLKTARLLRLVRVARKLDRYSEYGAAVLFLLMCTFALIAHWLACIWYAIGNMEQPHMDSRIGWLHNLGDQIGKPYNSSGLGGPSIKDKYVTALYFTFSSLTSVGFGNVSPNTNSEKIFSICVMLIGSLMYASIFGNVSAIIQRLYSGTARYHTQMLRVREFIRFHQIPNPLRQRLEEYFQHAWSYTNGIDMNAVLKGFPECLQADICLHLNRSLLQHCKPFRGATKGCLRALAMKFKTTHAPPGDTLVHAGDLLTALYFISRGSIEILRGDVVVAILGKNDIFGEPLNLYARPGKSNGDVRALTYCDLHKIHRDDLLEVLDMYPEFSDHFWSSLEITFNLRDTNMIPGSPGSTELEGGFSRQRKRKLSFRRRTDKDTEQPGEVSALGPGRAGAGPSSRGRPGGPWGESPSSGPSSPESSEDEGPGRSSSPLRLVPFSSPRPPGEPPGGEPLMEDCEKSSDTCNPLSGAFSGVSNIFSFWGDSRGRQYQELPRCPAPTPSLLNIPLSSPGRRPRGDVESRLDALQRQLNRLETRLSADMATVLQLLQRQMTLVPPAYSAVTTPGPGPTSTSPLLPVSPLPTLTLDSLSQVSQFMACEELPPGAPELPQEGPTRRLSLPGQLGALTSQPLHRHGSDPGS

native CB1 receptors = native CB1 receptors (Rattus norvegicus, UniProt P20272); experiment: CB1 receptor rat binding assay ([3H]SR141716A, rat brain membranes); conditions: rat brain membranes; 3 nM [3H]SR141716A; read-out: Rat Brain pKi (converted)
Chain of native CB1 receptors (P20272 whole entry): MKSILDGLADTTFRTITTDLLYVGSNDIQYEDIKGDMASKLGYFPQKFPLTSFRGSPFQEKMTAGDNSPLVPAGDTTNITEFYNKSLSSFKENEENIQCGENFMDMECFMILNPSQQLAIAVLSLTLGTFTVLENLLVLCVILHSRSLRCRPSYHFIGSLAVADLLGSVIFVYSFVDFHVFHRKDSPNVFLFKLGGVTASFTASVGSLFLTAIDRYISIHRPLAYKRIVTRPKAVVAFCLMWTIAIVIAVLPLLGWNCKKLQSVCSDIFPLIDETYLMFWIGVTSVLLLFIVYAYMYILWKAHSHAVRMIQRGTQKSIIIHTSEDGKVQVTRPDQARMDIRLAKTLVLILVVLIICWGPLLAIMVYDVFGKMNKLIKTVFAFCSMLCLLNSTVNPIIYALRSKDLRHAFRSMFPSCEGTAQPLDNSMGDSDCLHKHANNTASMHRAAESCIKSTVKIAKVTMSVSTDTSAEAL

hERG [6] = molecular target: T1, hERG; experiment: HERG safety study (whole cell recordings, CHO cells); conditions: CHO cells stably expressing hERG channels, pH 7.4

CC(C)CCNC(=O)c1ccc2c(c1)N=C(c1ccc(F)cc1)c1ccccc1S2 [drawing 1771]
microsomal CLint at 1 μM (in vitro [1]): 52 µL/min/mg
microsomal CLint at 1 μM (in vitro [2]): 214 µL/min/mg

Cc1ccc(N2CCN(C(=O)c3ccc4c(c3)N=C(C3CCCCC3)c3ccccc3S4)CC2)c(C)c1 [Example 18, (11-Cyclohexyl-dibenzo[b,f][1,4]thiazepin-8-yl)-[4-(2,4-dimethyl-phenyl)-piperazin-1-yl]methanone]
IC50 (CB1 (wild-type)): 0.0398 µM
Emax (CB1 (wild-type)): 99%
IC50 (CB1 (mutant)): 0.2 µM
% Inhibition (CB1 (mutant)): 99%

CCN(CCNC(=O)c1ccc2c(c1)N=C(c1cccc(Cl)c1)c1ccccc1S2)c1ccccc1 [drawing 1751]
microsomal CLint at 1 μM (in vitro [1]): 157 µL/min/mg
microsomal CLint at 1 μM (in vitro [2]): 368 µL/min/mg

CCCCNC(=O)c1ccc2c(c1)N=C(c1ccc(Cl)cc1)c1ccccc1S2 [drawing 536]
Feeding ID50 [3]: 2.4 mg/kg

CCCCNC(=O)c1ccc2c(c1)N=C(c1ccc(F)cn1)c1ccccc1S2 [drawing 545]
Feeding ID50 [3]: 6 mg/kg

O=C(NC1CCC(F)(F)CC1)c1ccc2c(c1)N=C(c1cccc(Cl)c1)c1ccccc1S2 [drawing 1715]
microsomal CLint at 1 μM (in vitro [1]): 3 µL/min/mg
microsomal CLint at 1 μM (in vitro [2]): 81 µL/min/mg

CC(C)CCNC(=O)c1ccc2c(c1)N=C(c1cccc(Cl)c1)c1ccccc1S2 [drawing 538]
Feeding ID50 [3]: 5.3 mg/kg

CC(C)CCNC(=O)c1ccc2c(c1)N=C(c1cccc(F)c1)c1ccccc1S2 [drawing 1713]
microsomal CLint at 1 μM (in vitro [4]): 202 µL/min/mg
microsomal CLint at 1 μM (in vitro [1]): 46 µL/min/mg
microsomal CLint at 1 μM (in vitro [2]): 163 µL/min/mg

O=C(NCCc1ccccc1)c1ccc2c(c1)N=C(c1cccc(Cl)c1)c1ccccc1S2 [drawing 1763]
microsomal CLint at 1 μM (in vitro [1]): 53 µL/min/mg
microsomal CLint at 1 μM (in vitro [2]): 110 µL/min/mg

CC(C)CNC(=O)c1ccc2c(c1)N=C(c1ccc(Cl)c(Cl)c1)c1ccccc1S2 [drawing 540]
Feeding ID50 [3]: 8.4 mg/kg

O=C(NN1CCCCC1)c1ccc2c(c1)N=C(c1ccc(Cl)cc1)c1ccccc1S2 [drawing 543]
Feeding ID50 [3]: 2.4 mg/kg

O=C(NN1CCCCCC1)c1ccc2c(c1)N=C(c1cccc(F)c1)c1ccccc1S2 [drawing 1827]
inhibition at 1 µM (hERG [5]): 88%

O=C(NN1CCCCC1)c1ccc2c(c1)N=C(c1ccc(F)cc1)c1ccccc1S2 [drawing 1815]
inhibition at 1 µM (hERG [5]): 91%

CC(C)CNC(=O)c1ccc2c(c1)N=C(c1ccc(Cl)cc1)c1ccccc1S2 [drawing 1759]
microsomal CLint at 1 μM (in vitro [4]): 83 µL/min/mg
microsomal CLint at 1 μM (in vitro [1]): 12 µL/min/mg
microsomal CLint at 1 μM (in vitro [2]): 56 µL/min/mg

CCOC(=O)N1CCC(NC(=O)c2ccc3c(c2)N=C(Cl)c2ccccc2S3)CC1 [Example 14, 4-[(11-chloro-dibenzo[b,f][1,4]thiazepine-8-carbonyl)-amino]-piperidine-1-carboxylic acid ethyl ester]
IC50 (CB1 (wild-type)): 0.126 µM
Emax (CB1 (wild-type)): 88%
IC50 (CB1 (mutant)): 0.316 µM
% Inhibition (CB1 (mutant)): 94%

O=C(NCc1ccc(F)cc1)c1ccc2c(c1)N=C(c1cccc(Cl)c1)c1ccccc1S2 [drawing 1662]
microsomal CLint at 1 μM (in vitro [1]): 27 µL/min/mg
microsomal CLint at 1 μM (in vitro [2]): 76 µL/min/mg

CC(C)CNC(=O)c1ccc2c(c1)N=C(c1ccc(Cl)s1)c1ccccc1S2 [drawing 544]
Feeding ID50 [3]: 7.9 mg/kg

CC(CNC(=O)c1ccc2c(c1)N=C(c1ccc(F)cc1)c1ccccc1S2)c1ccccc1 (stereo not drawn) [drawing 1797]
microsomal CLint at 1 μM (in vitro [1]): 108 µL/min/mg
microsomal CLint at 1 μM (in vitro [2]): 532 µL/min/mg

CC(C)CNC(=O)c1ccc2c(c1)N=C(c1ccc(Cl)s1)c1ccccc1S2 [Example 11, 11-(5-Chlorothiophen-2-yl)-dibenzo[b,f][1,4]thiazepine-8-carboxylic acid isobutylamide]
IC50 (CB1 (wild-type)): 0.0158 µM
Emax (CB1 (wild-type)): 84%
Ki (native CB1 receptors): 0.01 µM
IC50 (CB1 (mutant)): 0.126 µM
% Inhibition (CB1 (mutant)): 95%

O=C(NN1CCCCC1)c1ccc2c(c1)N=C(C1CCCCC1)c1ccccc1S2 [drawing 537]
Feeding ID50 [3]: 12 mg/kg

O=C(NCc1cccc(Cl)c1)c1ccc2c(c1)N=C(N1CCCCC1)c1ccccc1S2(=O)=O [drawing 1798]
microsomal CLint at 1 μM (in vitro [1]): 77 µL/min/mg
microsomal CLint at 1 μM (in vitro [2]): 217 µL/min/mg

O=C(NN1CCCCCC1)c1ccc2c(c1)N=C(c1cccc(F)c1)c1ccccc1S2 [drawing 1693]
microsomal CLint at 1 μM (in vitro [4]): 160 µL/min/mg
microsomal CLint at 1 μM (in vitro [1]): 84 µL/min/mg
microsomal CLint at 1 μM (in vitro [2]): 241 µL/min/mg

C[C@@H]1CCC[C@H](C)N1NC(=O)c1ccc2c(c1)N=C(c1cccc(Cl)c1)c1ccccc1S2 [drawing 1720]
microsomal CLint at 1 μM (in vitro [4]): 684 µL/min/mg
microsomal CLint at 1 μM (in vitro [1]): 390 µL/min/mg
microsomal CLint at 1 μM (in vitro [2]): 254 µL/min/mg

O=C(NCc1cccnc1)c1ccc2c(c1)N=C(c1ccc(Cl)c(Cl)c1)c1ccccc1S2 [drawing 541]
Feeding ID50 [3]: 14 mg/kg

CC(C)CNC(=O)c1ccc2c(c1)N=C(c1ccc(Br)cc1)c1ccccc1S2 [drawing 1791]
microsomal CLint at 1 μM (in vitro [1]): 19 µL/min/mg
microsomal CLint at 1 μM (in vitro [2]): 115 µL/min/mg

O=C(NN1CCCCC1)c1ccc2c(c1)N=C(c1ccc(F)cc1)c1ccccc1S2 [drawing 1685]
microsomal CLint at 1 μM (in vitro [1]): 61 µL/min/mg
microsomal CLint at 1 μM (in vitro [2]): 96 µL/min/mg

CC(C)CNC(=O)c1ccc2c(c1)N=C(c1ccc(Cl)cc1)c1ccccc1S2 [drawing 1818]
inhibition at 1 µM (hERG [5]): 69%

O=C(NC1CCC(F)(F)CC1)c1ccc2c(c1)N=C(c1cccc(Cl)c1)c1ccccc1S2 [drawing 1838]
inhibition at 1 µM (hERG [5]): 62%

CC(C)CCNC(=O)c1ccc2c(c1)N=C(c1cccc(Cl)c1)c1ccccc1S2 [drawing 1822]
inhibition at 1 µM (hERG [6]): 59%

O=C(NC1CCCCC1)c1ccc2c(c1)N=C(c1cccc(Cl)c1)c1ccccc1S2 [drawing 1834]
inhibition at 1 µM (hERG [6]): 44%

CCCCNC(=O)c1ccc2c(c1)N=C(c1ccc(Cl)cn1)c1cc(F)ccc1S2 [drawing 1841]
inhibition at 1 µM (hERG [6]): 52%

O=C(NCc1cccnc1)c1ccc2c(c1)N=C(c1ccc(Cl)c(Cl)c1)c1ccccc1S2 [drawing 1830]
inhibition at 1 µM (hERG [6]): 40%

CC(C)CNC(=O)c1ccc2c(c1)N=C(c1ccc(Cl)cc1F)c1ccccc1S2 [drawing 542]
Feeding ID50 [3]: 5.8 mg/kg

CCCCNC(=O)c1ccc2c(c1)N=C(c1ccc(Cl)cc1)c1ccccc1S2 [drawing 1812]
inhibition at 1 µM (hERG [6]): 49%

O=C(NCCCc1ccccc1)c1ccc2c(c1)N=C(c1ccc(Cl)cc1)c1ccccc1S2 [drawing 1680]
microsomal CLint at 1 μM (in vitro [1]): 73 µL/min/mg
microsomal CLint at 1 μM (in vitro [2]): 131 µL/min/mg

O=C(NN1CCCCC1)c1ccc2c(c1)N=C(c1ccc(Cl)s1)c1ccccc1S2 [drawing 1829]
inhibition at 1 µM (hERG [5]): 66%

O=C(NN1CCCCC1)c1ccc2c(c1)N=C(c1ccc(Cl)s1)c1ccccc1S2 [drawing 1660]
microsomal CLint at 1 μM (in vitro [4]): 227 µL/min/mg
microsomal CLint at 1 μM (in vitro [1]): 32 µL/min/mg
microsomal CLint at 1 μM (in vitro [2]): 148 µL/min/mg

O=C(NCc1ccccc1Cl)c1ccc2c(c1)N=C(c1ccccc1F)c1ccccc1S2 [drawing 1794]
microsomal CLint at 1 μM (in vitro [1]): 59 µL/min/mg
microsomal CLint at 1 μM (in vitro [2]): 181 µL/min/mg

O=C(NCc1ccccc1Cl)c1ccc2c(c1)N=C(c1ccc(Cl)cc1)c1ccccc1S2 [drawing 1782]
microsomal CLint at 1 μM (in vitro [1]): 17 µL/min/mg
microsomal CLint at 1 μM (in vitro [2]): 33 µL/min/mg

O=C(NC1CCCCC1)c1ccc2c(c1)N=C(c1ccc(F)cc1)c1ccccc1S2 [drawing 1814]
inhibition at 1 µM (hERG [6]): 45%

O=C(NN1CCCCC1)c1ccc2c(c1)N=C(c1ccc(Cl)cc1)c1ccccc1S2 [drawing 1831]
inhibition at 1 µM (hERG [6]): 92%

O=C(NCc1ccco1)c1ccc2c(c1)N=C(c1cccc(F)c1)c1ccccc1S2 [drawing 1754]
microsomal CLint at 1 μM (in vitro [4]): 197 µL/min/mg
microsomal CLint at 1 μM (in vitro [1]): 68 µL/min/mg
microsomal CLint at 1 μM (in vitro [2]): 140 µL/min/mg

CCCCNC(=O)c1ccc2c(c1)N=C(c1ccc(Br)cn1)c1ccccc1S2 [drawing 1820]
inhibition at 1 µM (hERG [6]): 78%

COc1cccc(C2=Nc3cc(C(=O)NC4CCC(F)(F)CC4)ccc3Sc3ccccc32)n1 [drawing 1673]
microsomal CLint at 1 μM (in vitro [1]): 25 µL/min/mg
microsomal CLint at 1 μM (in vitro [2]): 158 µL/min/mg

O=C(NCc1ccc(F)cc1)c1ccc2c(c1)N=C(c1ccc(Cl)cc1)c1ccccc1S2 [drawing 539]
Feeding ID50 [3]: 8 mg/kg

CCCCNC(=O)c1ccc2c(c1)N=C(c1ccc(Cl)s1)c1ccccc1S2 [drawing 1824]
inhibition at 1 µM (hERG [6]): 14%
